The subject of series [1] is cGMP levels in the striatum. In words: Measurements of cGMP in mouse brain in vivo. As to conditions: mice, 3 mg/kg i.p., 15, 30 or 60 min, compared to Bay 60-7550 (3 mg/kg). As to the method:
Striatum are dissected from the mouse brains and assayed for levels of cGMP. Trichloroacetic acid (TCA) is added to tissue samples for a final concentration of 5% TCA and the tissue is immediately sonicated in solution and stored on ice. The sonicated sample is centrifuged at 15,000×g for 20 min at 4° C. to remove the precipitated protein. To extract the TCA, the sample is washed three times in water saturated ether. The samples are then dried under vacuum (Speedvac, Savant SPD111V) at room temperature and re-suspended in 100 μL EIA buffer. […] Each sample is tested in duplicate in precoated assay plates alongside the 8-point cGMP standard dilutions. In addition, blank, maximum binding (B0) and non-specific binding wells are included. To all wells containing 50 μL sample or standard, equal volumes of AChE-linked cGMP and cGMP antibody are added. The plate is incubated at 4° C. for 18 hours. The wells are then washed 5 times with wash buffer. Detection reagent containing acetylthiocholine and […] is added and the plate is incubated at room temperature until the OD of the B0 wells is at least 0.5 as recorded by the SoftMax 4.8 software (Molecular Devices, Sunnyvale, Calif.). Each data point is converted to % B/B0 (100*[sample or standard OD−average non-specific binding)/(average B0−average non-specific binding)]). […]

A short description of series [2]: Pharmacokinetic study in mice (plasma and brain availability). Type of series: in vivo. The conditions noted are these: 10 mg/kg PO, compared to Bay 60-7550. As to the method:
Mice are given a single oral dose of the compound of Example 22 (10 mg/kg, PO) and plasma and brain availability are measured (0.25-4 h) using HPLC and LC-MS using methods analogous to those described in Zhao et al., J. Chromatogr. B. Analyt. Technol. Biomed. Life Sci. (2005) 819(1):73-80 and Appels, N. M., et al., Rapid Commun. Mass Spec. 2005. 19(15): p. 2187-92.

SMILES strings stand for the structures.

Turning to `COc1ccc2[nH]c(=O)c3c(C)nn(-c4cc(OCC5CCC5)ccc4Cl)c3c2n1` [Example 22, 1-(2-Chloro-5-(cyclobutylmethoxy)phenyl)-8-methoxy-3-methyl-1H-pyrazolo[4,3-c][1,5]naphthyridin-4(5H)-one], the “cGMP levels in the striatum” value in series [1] is “increases cGMP levels in the striatum”. For the same molecule, the brain access entry in series [2] was “good brain access”.

The values above are taken from patent US10543194B2, “Organic compounds” (INTRA-CELLULAR THERAPIES, INC., priority 2014, dated 2020).
